According to patent US9499551B2, “Substituted pyrrolo[2,3-b]pyridines for treating cancer or inflammatory diseases” (Confluence Life Sciences, Inc., priority 2014, dated 2016):

Legend:
[1] = tested on: IL-6 Production in Human Peripheral Blood Mononuclear Cells (PBMC); test: LPS stimulated IL-6 production in PBMC cells; assay type: cell-based; conditions: read-out: IL-6 Production Inhibition IC50
Experimental: LPS Stimulated IL-6 Production in PBMC Cells:
Lipopolysaccharide (LPS) stimulated IL-6 Production in Human Peripheral Blood Mononuclear Cells (PBMC): The cellular efficacy of compound candidates is determined using peripheral blood mononuclear cells purified from human whole blood, based upon the methods of Burnette et al. (2009) Pharmacology, 84:42-60. PBMC produce a number of cytokines (IL6, IL8, IL1β and TNFα) in response to stimulation with LPS. To induce the production of inflammatory mediators, PBMC are plated at a final concentration of 2×10^5 cells/well in a 96 well flat bottom plate in DMEM medium supplemented with 10% fetal bovine serum, 100 units/ml penicillin and 100 μg/ml streptomycin (Gibco BRL Life Technologies). Cells are treated with or without inhibitors for 1-3 hrs then stimulated with 100 ng/ml LPS (serotype 011:B4, Sigma) for an additional 3 hrs at 37° C. with 5% CO2. The supernatants are removed and stored at −20° C. until they are to be assayed. The levels of inflammatory mediators are determined using commercial MSD cytokine kits (Meso Scale Discovery) as per the manufacturer's instructions. Standard curves are based on 7 steps of 4× serial dilutions, with a wide dynamic range of 10000 pg/ml to 2.4 pg/ml, and a blank. Lower limit of detection (LLOD) is calculated at the commonly used 3× the standard deviation of the blank.

TAK1-TAB1 = target: T1, TAK1-TAB1 (Homo sapiens, UniProt O43318); test: TAK1-TAB1 binding inhibitory potency (LanthaScreen competitive binding assay, kinase tracer-236); conditions: 10 nM TAK1-TAB1, 100 nM kinase tracer-236; read-out: TAK1-Tab Inhibition IC50
T1 sequence (O43318 with tags, fused parts or gaps limits assumed): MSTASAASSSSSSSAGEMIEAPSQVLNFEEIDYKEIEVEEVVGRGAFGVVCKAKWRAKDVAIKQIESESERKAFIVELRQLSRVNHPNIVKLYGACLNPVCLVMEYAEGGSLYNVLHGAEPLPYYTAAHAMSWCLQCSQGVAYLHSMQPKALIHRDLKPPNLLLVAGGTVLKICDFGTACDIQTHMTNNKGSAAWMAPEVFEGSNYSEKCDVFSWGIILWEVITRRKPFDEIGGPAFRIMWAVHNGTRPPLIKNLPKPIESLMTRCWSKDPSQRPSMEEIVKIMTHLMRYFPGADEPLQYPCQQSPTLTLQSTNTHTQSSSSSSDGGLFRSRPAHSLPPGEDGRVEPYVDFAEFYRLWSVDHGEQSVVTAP
Outline: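 Compounds were tested for TAK1-TAB1 binding in a 384-well LanthaScreen competitive FRET assay. TAK1-TAB1 (10 nM) and Eu-anti-his antibody (2 nM) were preincubated with compound for two hours before adding 100 nM Alexa Fluor 647 kinase tracer-236. The buffer was 20 mM HEPES pH 7.5, 10 mM MgCl2, 0.01% BSA, 0.0005% Tween-20 and 2% DMSO. IC50 came from 4-parameter logistic fits of emission ratio over an 11-point series from 20 μM to 0.34 nM.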

SMILES	IC50 (TAK1-TAB1) [nM]	IC50 [1] [nM]
CC(C)(C)OC(=O)N1CCN(c2cnc3[nH]cc(/C=C/C(N)=O)c3c2)CC1 [Example 266, (E)-tert-butyl 4-(3-(3-amino-3-oxoprop-1-en-1-yl)-1H-pyrrolo[2,3-b]pyridin-5-yl)piperazine-1-carboxylate]	≤ 1000	≤ 1000
NC(=O)/C=C/c1c[nH]c2ncc(-c3ccc(F)cc3F)nc12 [Example 248, (E)-3-(2-(2,4-difluorophenyl)-5H-pyrrolo[2,3-b]pyrazin-7-yl)acrylamide]	≤ 1000	≤ 1000
NC(=O)/C=C/c1c[nH]c2ncc(N3CC(NC(=O)c4ccccc4)C3)cc12 [Example 298, (E)-N-(1-(3-(3-amino-3-oxoprop-1-en-1-yl)-1H-pyrrolo[2,3-b]pyridin-5-yl)azetidin-3-yl)benzamide]	≤ 1000	≤ 1000
CC(=O)/C=C/C(=O)Nc1c[nH]c2ncc(-c3ccccc3)cc12 [Example 240, (E)-4-oxo-N-(5-phenyl-1H-pyrrolo[2,3-b]pyridin-3-yl)pent-2-enamide]	≤ 1000	≤ 1000
CN1CCN(c2cc(-c3cnc4[nH]cc(/C=C/C(N)=O)c4c3)ccn2)CC1 [Example 273, (E)-3-(5-(2-(4-methylpiperazin-1-yl)pyridin-4-yl)-1H-pyrrolo[2,3-b]pyridin-3-yl)acrylamide]	≤ 1000	≤ 1000
NC(=O)/C=C/c1c[nH]c2ncc(N3CCN(C(=O)c4ccccc4)CC3)cc12 [Example 267, (E)-3-(5-(4-benzoylpiperazin-1-yl)-1H-pyrrolo[2,3-b]pyridin-3-yl)acrylamide]	≤ 1000	> 1000
NC(=O)/C=C/c1c[nH]c2ncc(Cc3ccc(F)cc3F)cc12 [Example 275, (E)-3-(5-(2,4-difluorobenzyl)-1H-pyrrolo[2,3-b]pyridin-3-yl)acrylamide]	≤ 1000	≤ 1000
CC(=O)/C=C/c1c[nH]c2ncc(-c3cccnc3)cc12 [Example 251, (E)-4-(5-(pyridin-3-yl)-1H-pyrrolo[2,3-b]pyridin-3-yl)but-3-en-2-one]	≤ 1000	> 1000
N#C/C(=C\c1c[nH]c2ncc(-c3ccccc3)cc12)C(N)=O [Example 226, (E)-2-Cyano-3-(5-phenyl-1H-pyrrolo[2,3-b]pyridin-3-yl)acrylamide]	≤ 1000	≤ 1000

More lines, main results first:

IC50 (TAK1-TAB1) [nM]	SMILES	IC50 [1] [nM]
≤ 1000	CC(C)Oc1ccc(-c2cnc3[nH]cc(/C=C/C(N)=O)c3c2)cn1 [Example 260, (E)-3-(5-(6-isopropoxypyridin-3-yl)-1H-pyrrolo[2,3-b]pyridin-3-yl)acrylamide]	≤ 1000
≤ 1000	CC(C)(O)c1ccc(-c2cnc3[nH]cc(/C=C/C(N)=O)c3c2)cc1 [Example 247, (E)-3-(5-(4-(2-hydroxypropan-2-yl)phenyl)-1H-pyrrolo[2,3-b]pyridin-3-yl)acrylamide]	≤ 1000
≤ 1000	CC(C)(O)Cn1cc(-c2cnc3[nH]cc(/C=C/C(N)=O)c3c2)ccc1=O [Example 292, (E) -3-(5-(1-(2-hydroxy-2-methylpropyl)-6-oxo-1,6-dihydropyridin-3-yl)-1H-pyrrolo[2,3-b]pyridin-3-yl)acrylamide]	> 1000
≤ 1000	NC(=O)/C=C/c1c[nH]c2ncc(-c3ccc(C(=O)N4CCCC4)nc3)cc12 [Example 281, (E)-3-(5-(6-(pyrrolidine-1-carbonyl)pyridin-3-yl)-1H-pyrrolo[2,3-b]pyridin-3-yl)acrylamide]	> 1000
≤ 1000	NC(=O)/C=C/c1c[nH]c2ncc(-c3ccncc3)cc12 [Example 259, (E)-3-(5-(pyridin-4-yl)-1H-pyrrolo[2,3-b]pyridin-3-yl)acrylamide]	≤ 1000
≤ 1000	CC(C)NC(=O)c1ccc(-c2cnc3[nH]cc(/C=C/C(N)=O)c3c2)nc1 [Example 295, (E)-6-(3-(3-amino-3-oxoprop-1-en-1-yl)-1H-pyrrolo[2,3-b]pyridin-5-yl)-N-isopropyl-nicotinamide]	> 1000
